The values below come from patent publication US11512073B2, “Benzimidazole derivatives, pharmaceutical composition comprising the same, and use thereof” (Chongqing University of Arts and Sciences, priority 2020, dated 2022).

The subject of test [1] is MDA-MB-231 and MDA-MB-468 cells. As to the kind of experiment: Mitochondrial membrane potential (JC-1) assay. Type of test: cell-based, Human. The note with it: 20 μM/L, 48 h. On the procedure:
The JC-1 Assay Kit (Beyotime) was used to monitor the alteration of mitochondrial membrane potential as the manufacturer's instructions. MDA-MB-231 and MDA-MB-468 cells were seeded in six-well plates with an appropriate density (2×10^5/mL) and then treated with compound 7a at various concentrations (0, 5, 10, 20 μM) for 48 h. Then 100 μL of JC-1 staining solution was added into 1 mL of medium and incubated for 20 min at cell incubator. The BD Accuri™ C6 flow cytometry was used to analyze the samples. Each experiment was carried out in triplicate, and the results were expressed as the mean±SD.

Test [2] relates to MDA-MB-468 cells. Nature of the test: MTT cell viability assay. Type of test: cell-based. The note with it: Homo sapiens. On the procedure: (§1) Compounds were dissolved in a hydrous dimethylsulfoxide (DMSO, Life technologies) to obtain a 50 mM stock solution, which was then added to the culture medium at a concentration range of 6.25-100 μM. Cells were treated with compounds at indicated concentrations for 48 h, and 0.1% DMSO was used as the vehicle. Z-VAD-FMK was purchased from Selleckchem (Houston, Tex.); The reagents including 3-(4,5-dimethylthiazol-2-yl)-2,5-diphenyltetrazolium bromide (MTT), dimethyl sulfoxide (DMSO), penicillin, streptomycin, propidium iodide (PI) were purchased from Sigma-Aldrich (MO, USA); All the primary antibodies used in this study were from Cell Signaling Technology (MA, USA) and the secondary antibodies were from LI-COR Biosciences (NE, USA).
(§2) Human triple negative breast cancer cell lines MDA-MB-231 and MDA-MB-468 were purchased from the American Type Culture Collection (ATCC, VA, USA). These cells were cultured in high-glucose DMEM (Gibco, USA) supplemented with 10% fetal bovine serum (FBS, Gibco) and 1% penicillin/streptomycin (Gibco) at 37° C. in a humidified incubator containing 5% CO2.
(§3) The antiproliferative activity of compounds was measured with the MTT assay. […] The absorbance value was determined at 570 nm using a microplate reader (Bio-Tek, VT, USA). Data were analyzed by GraphPad Prism 6. […]
Background: Tetrazolium assays rely on reduction of a dye to a coloured formazan, in cell work by metabolically active cells.

The subject of test [3] is MDA-MB-231 cells. Nature of the test: MTT cell viability assay. The format is cell-based. Conditions: Homo sapiens. The protocol: as §1, §2, §3
The subject of test [4] is TNBC cells. Nature of the test: Ki67-staining immunofluorescence. Type of test: cell-based, Human. The note with it: 48 h, versus controls. On the procedure: Cells were plated on glass coverslips in 24-well plates prior to treatment. After being exposed to different doses of compound 7a for 48 h, cells were washed with PBS for three times, fixed with 4% paraformaldehyde-PBS for 30 min, and then followed by permeabilization with 0.1% Triton X-100 for 10 min. Next, the samples were blocked with QuickBlock Blocking Buffer for Immunol Staining (Beyotime) for 30 min at 37° C., and incubated with anti-Ki67 (1:250), anti-LC3B antibody (1:250), anti-SQSTM1 antibody (1:250) or anti-γH2AX (1:250) overnight at 4° C. After washing with PBS three times, the stained cells were incubated with Alexa Fluor-conjugated secondary antibodies (1:2000) for 1 hour at room temperature. Moreover, 1 mg/mL DAPI dissolved in PBS were employed to label nuclei (30 min). Images were captured with a High Content analysis system (Perkinelmer, MA, USA).

Test [5] deals with HEK293T cells. Nature of the test: HA-ubiquitin immunoprecipitation, H2A/H2AX ubiquitination. The format is cell-based. Conditions: 20 μM compound 7a for 24 h. On the procedure: FIG. 6A: MDA-MB-231 and MDA-MB-468 were treated with indicated concentrations of compound 7a for 48 h, and then the immunofluorescence analysis was performed to detect γH2AX signal, the histone H2AX phosphorylation representing DSBs. Scale bar: 100 μm. FIG. 6B: γH2AX positive cells in (FIG. 6A) were counted and presented in the histogram. FIGS. 6C and 6D: following treatment with different concentrations (FIG. 6C) and times (FIG. 6D) of compound 7a, treated cell were lysed and phosphorylation/activation levels of ATM, NBS1, SMC1, γH2AX were examined by western blotting. Additionally, RNF8 and DNA repair proteins such as BRCA2 and RAD51 were detected using western. β-tubulin was employed as a loading control. […] P62 signal was measured by immunofluorescence analysis. […] HA-Ub was immunoprecipitated with HA binding beads and ubiquitinated H2A/H2AX was detected with anti-H2A/H2AX. […]
MDA-MB-231 and MDA-MB-468 cells were treated with the compound 7a (0, 5, 10 and 20 μmol/L) for 48 h, total protein was extracted using RIPA buffer (Beyotime, Shanghai, China) supplemented with protease/phosphatase inhibitor cocktail (Roche, Mannheim, Germany) at 4° C. for 30 min. The protein concentration was quantified by the BCA protein assay kit (Beyotime). […] The objective protein signal was obtained using an odyssey two-color infrared fluorescence imaging system (Li-cor, NE, USA). […]

Usually IC50 stands for the midpoint of a concentration-inhibition curve. Read a high IC50 as weaker potency. As for `O=C(NC1CCCCC1)c1[nH]cnc1-c1nc2ccccc2[nH]1` [Compound 7a], in test [1], the “cells with reduced mitochondrial membrane potential” value is roughly 50%. Moreover, the IC50 in test [2] came out at 6 µM; in test [3], 8.3 µM. Also, in test [4], the “rate of Ki67-positive cells” value was “notably reduced rate of Ki67-positive cells”. The “formation of H2A poly-ubiquitin chains” value in test [5] is “significantly reduced”.
